In US11883430B2, “CD38-NAD+ regulated metabolic axis in anti-tumor immunotherapy” (MUSC FOUNDATION FOR RESEARCH DEVELOPMENT, priority 2016, dated 2024):

Experiments:
[1] = system: B16-F10 melanoma; test: Adoptive T cell transfer, s.c. B16-F10 melanoma in C57BL/6 mice, tumor growth; format: in vivo, mouse; conditions: TRP-1 Th1/17 differentiated with DON 3 μM vs DMSO, 0.5×10^6 cells (FIG. 3P)
Protocol: Adoptive T cell protocol: B16-F10 or B16-F10-A2^+ mouse melanoma tumor cells (2.5×10^6) were injected subcutaneously (s.c.) into left flank of 8-10 weeks old C57BL/6 or HLA-A2^+ (or HLA-A2^+-RAG^−/−) mice respectively. After 9 days of tumor establishment, recipient mice were injected (i.p) with cyclophosphamide (4 mg/mice) before adoptively transferring (i.v) either h3T (CD4^+Vβ12^+) or TRP-1 (CD4^+Vβ14^+) Th1, Th17, Th1/17 cells on day 10. Similarly, Pmel (CD8^+Vβ13^+) and TCR-I (CD8^+Sv40 antigen specific) Tc1, Tc17 and Tc1/17 cells were adoptively transferred (i.v) into either 9 days established B16-F10 tumor bearing mice or TRAMP (spontaneously develop prostate tumor) respectively. For in vivo neutralization of IFNγ and IL17, neutralizing antibody to IFNγ and IL17 or matched isotype antibody was injected (100 μg/mouse; i.p.) in tumor bearing mice following adoptive transfer of T cells. In some experiments, tumor bearing mice received anti-CD38 antibody (50 μg/mouse; i.p.) after adoptive TRP-1 Th0 cells transfer. Recipient mice were given IL2 (50,000 U/mouse; i.p) for 3 consecutive days after ACT.

[2] = system: Th1/17 cells; test: Intracellular cytokine (IFNγ, IL17) flow cytometry after PMA and ionomycin; format: cell-based, mouse
Source text: T cell differentiation: Naïve CD4^+ T cells were purified from the total splenocytes of 6-9 weeks old WT (C57BL/6) and KO (Foxo1^fl/flLck^cre, Sirt1^fl/flCD4^cre, CD38KO) mice using CD4^+ T cell isolation kit (Miltenyi Biotec) according to manufacturer's protocol. Total splenocytes from 6-9 weeks old TCR transgenic mouse TRP-1 (bears class-II restricted CD4^+ T cells) or Pmel (bears class-I restricted CD8^+ T cells) or TCR-I (bears class-I restricted CD8^+ T cells) were also used. Within experiments mice were age and sex matched. Purified naïve CD4^+ T cells or total splenocytes were differentiated to Th1 or Tc1 (10 ng/ml IL12, 50 U/ml IL2 and 10 μg/ml anti-IL4), Th17 or Tc17 (3 ng/ml TGFβ, 25 ng/ml IL6, 10 μg/ml anti-IL4 and 10 μg/ml anti-IFNγ), Th1/17 or Tc1/17 (20 ng/ml IL1β, 25 ng/ml IL6, 10 ng/ml IL12, 20 ng/ml IL23, 400 pg/ml TGFβ, 10 μg/ml anti-IL4, 5 μg/ml anti-IFNγ), iTreg (5 ng/ml TGFβ, 100 IU/ml IL2, 10 μg/ml anti-IL4 and 10 μg/ml anti-IFNγ or Th0 (50 IU/ml IL2) in presence of plate bound anti-CD3 (5 μg/ml) and anti-CD28 (5 μg/ml). For TRP-1, gp100 or Sv40 specific generation of different Th or Tc subsets, total splenocytes from either TRP-1, Pmel or TCR-I TCR transgenic mice were stimulated with 1 μg/ml respective peptides in presence of above-mentioned polarizing conditions. T cells were differentiated for three days in IMDM media supplemented with 10% FCS, 4 mM L-glutamine, 100 U/ml penicillin, 100 μg/ml streptomycin, 55 μM beta-mercaptoethanol under 7% CO2, atmospheric oxygen at 37° C. in a humidified incubator. For evaluation of intracellular cytokines by flow cytometry, T cells were re-stimulated with PMA (500 ng/ml) and Ionomycin (500 ng/ml) for 4 hr in presence of Glogi inhibitors. […]
Flow cytometry: Staining for cell surface markers was performed by incubating cells with antibody at 1:200 dilutions in FACS buffer (0.1% BSA in PBS) for 30 min at 4° C. […] Samples were acquired on LSRFortessa and analysed with FlowJo software (Tree Star, OR).

[3] = system: Th1/17 cells; test: Viable cells by FACS live/dead dye staining; format: cell-based, mouse; conditions: cultured in presence of DON 3 μM; compared to Th1 or Th17 cell (FIG. 11H)
Protocol: FIGS. 11A-11L: Metabolic commitment of Th1, Th17 and Th1/17 cells (see FIGS. 3-4). (A-C) In vitro differentiated murine Th1, Th17 and Th1/17 cells were used for determining: (A) intracellular expression of various glycolytic enzymes, (B) cell surface expression of different amino acid transporters, and (C) intracellular expression of glutaminolytic enzymes by flow cytometry. Data are representative of three independent experiments with similar results. (D) Western blot analysis determined the protein level of various glutamine transporters and glutaminolytic enzymes in in vitro differentiated Th1, Th17 and Th1/17 cells. β-actin was used as a loading control. Data are representative of two independent experiments with similar results. (E-F) Purified CD4^+ T cells were differentiated to Th1, Th17 and Th1/17 cells either in presence or absence of 2DG (1 mM) or DON (3 μM) and characterized for: (E) intracellular cytokine secretion after restimulating them with PMA and ionomycin for 4 hr, (F) determining the frequency of cells that were IFNγ^+, IL17^+ or IFNγ^+IL17^+ in each treatment groups and presented using scatter plot. Statistical comparison between treated and untreated groups are indicated. […] (I) Purified CD4^+ T cells were differentiated into Th1, Th17 and Th1/17 cells and intracellular metabolites were measured using mass spectrometry. […]

[4] = system: Th1/17 cells; test: Glutamine uptake assay (radiolabelled glutamine); format: cell-based, mouse; conditions: DON pre-treatment, different conc. (FIG. 3O)
Protocol: Glutamine uptake assay: Ex vivo programmed Th cell subsets (1×10^6 cells) were starved in glutamine free RPMI-1640 media (Thermo Fisher Scientific, Cat #21870-076) for 15 min before incubated with L-2,3,4-[^3H] glutamine (0.5 mCi, PerkinElmer) for 10 min at room temperature. Cells were lysed in 500 μl of lysis buffer (Sigma-Aldrich, St. Louis, MO) and radioactivity was measured by liquid scintillation.

[5] = system: NAD+; test: Intracellular NAD+ level; format: cell-based, mouse; conditions: Th1/17 differentiated with 2DG 1 mM, DON 3 μM or FK866 10 nM (FIGS. 11K, 11L)
Protocol: NAD^+, Sirt1 activity and Foxo1 activity assay: Intracellular NAD^+ level in T cells were measured spectrophotometrically following the manufacturer's protocol (Cayman chemical, Ann Arbor, MI). Using equal amounts of nuclear protein extracted by NE-PER Nuclear and Cytoplasmic Extraction Reagents (Thermo Fisher Scientific, Waltham, MA), Sirt1 activity (Universal Sirt1 Activity Assay Kit, Abcam, Cambridge, MA) and Foxo1 activity (FKHR transcription Factor Assay Kit, Active Motif, Carlsbad, CA) were determined as per manufacturer's protocol.

[6] = system: B16-F10-HLA-A2+ murine melanoma; test: Adoptive T cell transfer, s.c. B16-F10-HLA-A2+ melanoma, tumor growth; format: in vivo, mouse; conditions: Th1/17 differentiated ex vivo with FK866 or Ex527 vs untreated/vehicle (FIGS. 4E, 5F)
[7] = system: Th1 cells; test: Intracellular cytokine (IFNγ, IL17) flow cytometry after PMA and ionomycin; format: cell-based, mouse; conditions: Th1 subsets (FIGS. 12A and 12B)
Protocol: FIGS. 12A-12D: Loss of Sirt1 expression and NAD+ levels on Th1/17 cell phenotype and function (see FIG. 5). (A) Purified CD4^+ T cells from C57BL/6 were used to differentiate to Th1/17 cells either alone or in the presence of Ex527, a pharmacological inhibitor of Sirt1. Cells were then restimulated with PMA and ionomycin for 4 hr in presence of golgi block to stain for intracellular accumulation of cytokines IFNγ and IL17. (B) Th1 cells were cultured either in presence or absence of NAD+ inhibitor FK866 (10 nM) and intracellular staining was performed for IFNγ and IL17. Data was acquired using FACS and analysis was carried out using FlowJo software. (C-D) Purified splenic CD4^+ T cells from either C57BL/6 WT or Sirt1fl/flCD4Cre (Sirt1KO) mouse were used to ex vivo program for Th1/17 cells. RNA was prepared and quantitative PCR analysis was performed for the expression of various glycolysis (C) and glutaminolysis (D) associated genes in either WT or Sirt1KO Th1/17 cells. Data in section A-D are representative of three independent experiments.
T cell differentiation: Naïve CD4^+ T cells were purified from the total splenocytes of 6-9 weeks old WT (C57BL/6) and KO (Foxo1^fl/flLck^cre, Sirt1^fl/flCD4^cre, CD38KO) mice using CD4^+ T cell isolation kit (Miltenyi Biotec) according to manufacturer's protocol. […]

[8] = system: Th1/17 cells; test: qPCR gene expression in Th1/17 cells; format: cell-based, mouse; conditions: Th1/17 differentiated with FK866 10 nM or Ex527 (FIGS. 4D, 5D)
Protocol: Real-time quantitative-PCR: Total RNA was extracted from pellets of the indicated T cell subsets (2×10^6 cells) using Trizol reagent (Life technologies, Grand Island, NY). cDNA was generated from 1 μg total RNA using iScript cDNA Synthesis Kit (BioRad, Hercules, CA). SYBR Green incorporation quantitative real-time PCR was performed using a SYBR Green mix (Biorad, Hercules, CA) in the CFX96 Detection System (BioRad, Hercules, CA). Expression of different genes was quantified relative to Actb.

[9] = system: Th1/17 cells; test: Global acetylation of nuclear protein, western blot; format: cell-based, mouse; conditions: Nampt inhibitor FK866 treatment (FIG. 6A, FIG. 13A)
Protocol: Immunoblotting and Immunoprecipitation of Foxo1: For evaluation of global protein acetylation, cells were lysed using NE-PER Nuclear and Cytoplasmic Extraction Reagents (Thermo Fisher Scientific, Waltham, MA) and nuclear fraction was isolated according to the manufacturer's protocol. Equal amounts of nuclear protein (20 μg) were separated by 4%-12% SDS-PAGE and then transferred to nitrocellulose membranes. The membranes were probed with anti-Acetyl-Lysine antibody (Cell Signaling Technologies, Danvers, MA) followed by incubation with secondary antibody (HRP-conjugated goat anti-rabbit IgG at 1:3000 dilutions) for overnight at 4° C. Pre-stained molecular weight and magic markers were run in parallel to identify the molecular weight of proteins. For chemiluminescent detection, the membranes were treated with enhanced chemiluminescent reagent, and the signal was monitored using a Biorad Versadoc imaging system (Biorad, Hercules, CA). Same membrane was stripped with stripping buffer (Bioland Scientific, Paramount, CA) according to manufacturer's protocol and re-probed with antibody specific to histone H3 (Cell Signaling Technologies, Danvers, MA) as reference control.

[10] = system: Foxo1; test: Confocal imaging of Foxo1 localization in Th17 and Th1/17 cells; format: cell-based, mouse; conditions: Th17 and Th1/17 cells programmed with SC-79 0.5 μg/ml (FIG. 13H)

SMILES | anti-tumor response of DON pre-treated Th1/17 cells upon ACT [1] | IFNγ+IL-17+ secreting fraction ([2]; DON 3 μM in differentiation media from day 0 (FIGS. 11E, 11F)) | viability of Th1/17 cells [3] | uptake of radio labelled glutamine [4] | NAD+ levels in Th1/17 cells [5] | tumor control by inhibitor-treated Th1/17 cells upon adoptive transfer [6] | frequency of IL17+IFNγ+ population ([2]; FK866 10 nM in differentiation media from day 0 (FIG. 4C)) | IFNγ secreting fraction [7] | expression of stemness-associated genes [8] | reduced global acetylation of Th1/17 cells [9] | nuclear Foxo1 levels [10]
[N-]=[N+]=CC(=O)CC[C@H](N)C(=O)O [DON, 6-Diazo-5-oxo-L-norleucine] | significant attenuation of the anti-tumor response upon ACT | reduction in IFNγ^+IL-17^+ secreting fraction | reduced by two-folds | reduced the uptake of radio labelled glutamine in a dose dependent manner | significantly reduced NAD^+ levels |  |  |  |  |  | 
O=C(/C=C/c1cccnc1)NCCCCC1CCN(C(=O)c2ccccc2)CC1 [FK866] |  |  |  |  | depletion of NAD^+ | failed to exhibit potent tumor control upon adoptive transfer | two-fold decrease in the frequency of IL17^+IFNγ^+ population | No significant difference | reduced expression of stemness-associated molecules such as Tcf7, Bcl6, and β-catenin | reversed to a certain extent | 
CCOC(=O)C1=C(N)Oc2ccc(Cl)cc2C1C(C#N)C(=O)OCC (stereo not drawn) [SC-79] |  |  |  |  |  |  |  |  |  |  | reduced nuclear Foxo1 levels
